One block for each compound: values may come before it.
Test: skin permeability, static Franz diffusion cells
Type: in vitro ADME, pig
Conditions: for permeation of epidermis: 6 h experiment, donor 0.1 mg/mL; for recovery at 6 h, 0.1 mg/mL: pig; for recovery at 6 h, 0.1 mg/mL / amount in receptor fluid after 6 h (%) / amount on/in skin (%) / recovery (%): w/w %; for recovery at 6 h, 0.1 mg/mL / recovery (%): sum of receptor compartment after 6 h and overnight skin extraction; for amount on/in skin (%): overnight skin extraction after 6 h
Protocol: For the permeability experiments, ultra-performance liquid chromatography-electrospray ionization tandem mass spectroscopy (UPLC)-ESI-MS/MS analysis was carried out using a Xevo TQ-S micro triple quadrupole mass spectrometer equipped with an electrospray interface and coupled to an Acquity UPLC H-Class Plus system from Waters. Separation was achieved on an ACE Excel C18-PFP column (75 × 2.1 mm, 1.7 μm) from Advanced Chromatography Technologies Ltd. (Aberdeen, Scotland). Mobile phase A consisted of 0.1% formic acid and 5% acetonitrile in water, whereas mobile phase B consisted of 0.1% formic acid and 5% water in acetonitrile. The gradient program used was as follows: 20% B (0–2 min), 20–80% B (2–9 min), 80–95% B (9–9.1 min), 95% B (9.1–12 min), 95–20% B (12–12.1 min), 20% B (12.1–15 min). The flow rate was set to 0.3 mL/min and the injection volume was 2 μL. Analysis was performed in positive ionization mode using a Multiple Reaction Monitoring (MRM) method. The optimal parameters were capillary voltage 1.5 (kV), desolvation temperature 650 °C, desolvation gas 850 L/h, and cone 100 L/h.
The Franz diffusion cell experiment was based on the OECD Test Guidelines.[35] Static Franz diffusion cells equipped with pig ex vivo epidermis were used to assess the permeability of isosorbide bis-epoxides 2 and 3. Freshly cut pig ears were received frozen and stored at −20 °C until used for permeability assessment. One day before the experiment, the ears were transferred at +4 °C and allowed to thaw. The ears were then washed, shaved, and carefully cut with a Watson Dermatome skin graft knife to obtain 0.1 mm pieces of the epidermis layer. The integrity of the skin (transparent and intact) was determined by ocular inspection. Thereafter, the epidermis layer was cut and positioned between the donor and receptor compartment of each Franz cell. The receptor compartments were filled with 5 mL of ethanol/PBS (1:1) and equipped with a small magnetic stir bar to ensure mixing while maintaining a constant temperature of the circulating water at 37 °C. To equilibrate the skin, the upper chamber was filled with 0.5 mL of ethanol/PBS (1:1) which was later removed and replaced with the donor solution (50 μL) containing either 2 or 3 (0.1 mg/mL) or DGEBA (0.1 mg/mL) used as a positive control. A procedural blank containing only 50 μL of ethanol/PBS (1:1) in the donor compartment was also included in the experimental setup. Samples of 100 μL were collected after 0–2 min, 1, 2, 3, 4, 5, and 6 h. At each timepoint, a sample aliquot was removed and 100 μL of ethanol/PBS (1:1) was added to the receptor compartment to keep the volume constant. After 6 h, the skin from each Franz cell was extracted overnight in 5 mL of ethanol/PBS (1,1). Triplicate experiments were performed for each compound. The obtained samples were analyzed with UPLC-ESI-MS/MS (see Figure S2 for parameters) and quantification was based on external calibration curves. The limit of quantification (LOQ) was determined by the analysis of the analyte at low concentration and was calculated as 10 times the signal-to-noise ratio.

[1] = Extract: skin extracted overnight after 6 h

- permeation of epidermis: observed
- Average (µM) [1]: 0.345 µM
- Average (µg/ml) [1]: 0.161 µg/mL
- Replicate 1 [1]: 0.203 µg/mL
- Replicate 2 [1]: 0.139 µg/mL
- Replicate 3 [1]: 0.141 µg/mL
- recovery at 6 h, 0.1 mg/mL: 48%
- Average (µM) (receptor fluid, timepoint 0 h): 0 µM
- Average (µg/ml) (receptor fluid, timepoint 0 h): 0 µg/mL
- Replicate 1 (µg/ml) (receptor fluid, timepoint 0 h): < LOQ
- Replicate 2 (µg/ml) (receptor fluid, timepoint 0 h): < LOQ
- Replicate 3 (µg/ml) (receptor fluid, timepoint 0 h): < LOQ
- Average (µM) (receptor fluid, timepoint 1 h): 0.123 µM
- Average (µg/ml) (receptor fluid, timepoint 1 h): 0.0574 µg/mL
- Replicate 1 (receptor fluid, timepoint 1 h): 0.0637 µg/mL
- Replicate 2 (receptor fluid, timepoint 1 h): 0.0511 µg/mL
- Average (µM) (receptor fluid, timepoint 2 h): 0.490 µM
- Average (µg/ml) (receptor fluid, timepoint 2 h): 0.228 µg/mL
- Replicate 1 (receptor fluid, timepoint 2 h): 0.299 µg/mL
- Replicate 2 (receptor fluid, timepoint 2 h): 0.233 µg/mL
- Replicate 3 (receptor fluid, timepoint 2 h): 0.154 µg/mL
- Average (µM) (receptor fluid, timepoint 3 h): 0.669 µM
- Average (µg/ml) (receptor fluid, timepoint 3 h): 0.312 µg/mL
- Replicate 1 (receptor fluid, timepoint 3 h): 0.437 µg/mL
- Replicate 2 (receptor fluid, timepoint 3 h): 0.320 µg/mL
- Replicate 3 (receptor fluid, timepoint 3 h): 0.180 µg/mL
- Average (µM) (receptor fluid, timepoint 4 h): 0.796 µM
- Average (µg/ml) (receptor fluid, timepoint 4 h): 0.371 µg/mL
- Replicate 1 (receptor fluid, timepoint 4 h): 0.538 µg/mL
- Replicate 2 (receptor fluid, timepoint 4 h): 0.362 µg/mL
- Replicate 3 (receptor fluid, timepoint 4 h): 0.213 µg/mL
- Average (µM) (receptor fluid, timepoint 5 h): 0.721 µM
- Average (µg/ml) (receptor fluid, timepoint 5 h): 0.336 µg/mL
- Replicate 1 (receptor fluid, timepoint 5 h): 0.500 µg/mL
- Replicate 2 (receptor fluid, timepoint 5 h): 0.323 µg/mL
- Replicate 3 (receptor fluid, timepoint 5 h): 0.186 µg/mL
- Average (µM) (receptor fluid, timepoint 6 h): 0.679 µM
- Average (µg/ml) (receptor fluid, timepoint 6 h): 0.317 µg/mL
- Replicate 1 (receptor fluid, timepoint 6 h): 0.474 µg/mL
- Replicate 2 (receptor fluid, timepoint 6 h): 0.309 µg/mL
- Replicate 3 (receptor fluid, timepoint 6 h): 0.166 µg/mL
- amount in receptor fluid after 6 h (%): 31.7 ± 12.6%
- amount on/in skin (%): 16.1 ± 3.0%
- recovery (%): 47.7 ± 15.6%
SMILES: O=C(OC1COC2C(OC(=O)c3ccc(CC4CO4)cc3)COC12)c1ccc(CC2CO2)cc1 [Compound 2, (3R,3aR,6S,6aR)-3,6-O-Bis[4-(3,4-epoxypropyl)benzoyl]-1,4:3,6-dianhydro-D-glucitol]

- permeation of epidermis: observed
- Average (µM) [1]: 0.0736 µM
- Average (µg/ml) [1]: 0.0323 µg/mL
- Replicate 1 [1]: 0.0650 µg/mL
- Replicate 2 [1]: 0.000965 µg/mL
- Replicate 3 [1]: 0.0309 µg/mL
- recovery at 6 h, 0.1 mg/mL: 25%
- Average (µM) (receptor fluid, timepoint 0 h): 0 µM
- Average (µg/ml) (receptor fluid, timepoint 0 h): 0 µg/mL
- Replicate 1 (µg/ml) (receptor fluid, timepoint 0 h): < LOQ
- Replicate 2 (µg/ml) (receptor fluid, timepoint 0 h): < LOQ
- Replicate 3 (µg/ml) (receptor fluid, timepoint 0 h): < LOQ
- Average (µM) (receptor fluid, timepoint 1 h): 0.187 µM
- Average (µg/ml) (receptor fluid, timepoint 1 h): 0.0818 µg/mL
- Replicate 1 (receptor fluid, timepoint 1 h): 0.0897 µg/mL
- Replicate 2 (receptor fluid, timepoint 1 h): 0.110 µg/mL
- Replicate 3 (receptor fluid, timepoint 1 h): 0.0460 µg/mL
- Average (µM) (receptor fluid, timepoint 2 h): 0.465 µM
- Average (µg/ml) (receptor fluid, timepoint 2 h): 0.204 µg/mL
- Replicate 1 (receptor fluid, timepoint 2 h): 0.139 µg/mL
- Replicate 2 (receptor fluid, timepoint 2 h): 0.292 µg/mL
- Replicate 3 (receptor fluid, timepoint 2 h): 0.180 µg/mL
- Average (µM) (receptor fluid, timepoint 3 h): 0.563 µM
- Average (µg/ml) (receptor fluid, timepoint 3 h): 0.247 µg/mL
- Replicate 1 (receptor fluid, timepoint 3 h): 0.191 µg/mL
- Replicate 2 (receptor fluid, timepoint 3 h): 0.347 µg/mL
- Replicate 3 (receptor fluid, timepoint 3 h): 0.203 µg/mL
- Average (µM) (receptor fluid, timepoint 4 h): 0.542 µM
- Average (µg/ml) (receptor fluid, timepoint 4 h): 0.238 µg/mL
- Replicate 1 (receptor fluid, timepoint 4 h): 0.202 µg/mL
- Replicate 2 (receptor fluid, timepoint 4 h): 0.309 µg/mL
- Replicate 3 (receptor fluid, timepoint 4 h): 0.203 µg/mL
- Average (µM) (receptor fluid, timepoint 5 h): 0.539 µM
- Average (µg/ml) (receptor fluid, timepoint 5 h): 0.236 µg/mL
- Replicate 1 (receptor fluid, timepoint 5 h): 0.204 µg/mL
- Replicate 2 (receptor fluid, timepoint 5 h): 0.306 µg/mL
- Replicate 3 (receptor fluid, timepoint 5 h): 0.198 µg/mL
- Average (µM) (receptor fluid, timepoint 6 h): 0.495 µM
- Average (µg/ml) (receptor fluid, timepoint 6 h): 0.217 µg/mL
- Replicate 1 (receptor fluid, timepoint 6 h): 0.165 µg/mL
- Replicate 2 (receptor fluid, timepoint 6 h): 0.298 µg/mL
- Replicate 3 (receptor fluid, timepoint 6 h): 0.189 µg/mL
- amount in receptor fluid after 6 h (%): 21.7 ± 5.8%
- amount on/in skin (%): 3.2 ± 2.6%
- recovery (%): 24.9 ± 8.4%
SMILES: c1cc(CC2CO2)ccc1CO[C@H]1CO[C@H]2[C@@H]1OC[C@H]2OCc1ccc(CC2CO2)cc1 (stereo partly drawn) [Compound 3, (3R,3aR,6S,6aR)-3,6-O-Bis[4-(3,4-epoxypropyl)benzyl]-1,4:3,6-dianhydro-D-glucitol]
